Source: patent US12403118B1, “Cancer treatments using modified fatty acids and the carriers to administer them” (Zetagen Therapeutics, Inc., priority 2025, dated 2025)

Columns and labels:
[1] = Solubility in heated non-polar solvents and fatty acid solutions; format: physicochemical; conditions: heated to at least 90° C.; for solubility in fatty acid solutions: oleic acid, linoleic acid, vegetable oil, olive oil, canola oil, castor oil; for solubility in non-polar solvents: toluene, xylene, n-octane, cyclohexane, hexane, chloroform, acetonitrile, ether
MCF7 breast cancer cells = assay: MTT assay of cell proliferation; format: cell-based; conditions: relative to no treatment
Experimental: The MTT Assay of Cell Proliferation: The MTT assay provides a measurement of cell proliferation (FIG. 5) in the MCF7 breast cancer cells. […] Experiments were conducted using three independent replicates and evaluated using a 1-way ANOVA. Relative to Controls at 24-hours (FIG. 5A), there was between a 6.9% and 11.94% decrease in cell number (**=p<0.0034, ***=p<0.0007, and ****=p<0.0001). Relative to Control cultures at 72-hours (FIG. 5B), there was between a 15.4% and 50.2% decrease in cell number (****=p<0.0001).
Combination Therapy Assessed Using the MTT Assay of Cell Proliferation: The MTT assay provides a measurement of cell proliferation (FIG. 5) in the MCF7 breast cancer cells. […] Control cultures were treated with 50-nM of Tomoxifen or 10-nM of Abemaciclib.

Phosphoglycerate kinase = conditions: substrate Mg-ATP; cited from earlier work
TRPA1 channels = TRPA1 channels (Homo sapiens, UniProt O75762); conditions: 20-μM Ca^2+; cited from earlier work
Chain of TRPA1 channels (O75762 whole entry): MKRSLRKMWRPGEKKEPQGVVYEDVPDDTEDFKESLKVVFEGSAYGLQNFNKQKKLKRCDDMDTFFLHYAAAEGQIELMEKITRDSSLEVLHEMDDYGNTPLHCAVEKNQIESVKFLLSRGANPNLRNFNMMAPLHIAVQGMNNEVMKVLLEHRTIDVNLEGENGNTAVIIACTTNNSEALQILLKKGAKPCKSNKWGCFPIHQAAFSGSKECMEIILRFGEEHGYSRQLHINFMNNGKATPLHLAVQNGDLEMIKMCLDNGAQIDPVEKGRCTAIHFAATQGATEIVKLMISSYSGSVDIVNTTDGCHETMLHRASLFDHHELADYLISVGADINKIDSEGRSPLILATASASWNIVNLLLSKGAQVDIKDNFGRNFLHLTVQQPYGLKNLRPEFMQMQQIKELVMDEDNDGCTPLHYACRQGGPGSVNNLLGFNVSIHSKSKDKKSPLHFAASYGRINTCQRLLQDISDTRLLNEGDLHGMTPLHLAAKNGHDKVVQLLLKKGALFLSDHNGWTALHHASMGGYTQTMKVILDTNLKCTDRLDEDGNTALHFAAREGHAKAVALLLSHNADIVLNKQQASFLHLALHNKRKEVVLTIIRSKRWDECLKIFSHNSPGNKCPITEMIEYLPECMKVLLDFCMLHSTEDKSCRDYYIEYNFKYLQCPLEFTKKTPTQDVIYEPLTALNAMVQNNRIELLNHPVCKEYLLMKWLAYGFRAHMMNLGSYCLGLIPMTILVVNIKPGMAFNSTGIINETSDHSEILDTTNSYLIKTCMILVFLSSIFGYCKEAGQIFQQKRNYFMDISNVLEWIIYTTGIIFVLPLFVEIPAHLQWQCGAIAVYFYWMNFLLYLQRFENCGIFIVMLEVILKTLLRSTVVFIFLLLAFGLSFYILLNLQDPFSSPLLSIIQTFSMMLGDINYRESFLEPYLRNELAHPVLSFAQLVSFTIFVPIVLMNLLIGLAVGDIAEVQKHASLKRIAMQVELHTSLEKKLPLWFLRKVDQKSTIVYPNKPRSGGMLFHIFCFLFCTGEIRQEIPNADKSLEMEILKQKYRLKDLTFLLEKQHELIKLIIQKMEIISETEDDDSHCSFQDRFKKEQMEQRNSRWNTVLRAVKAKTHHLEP

## CCCCCCCCCCCC(=O)O [lanthanum (III) tridodeconoate]
[1]
  solubility in fatty acid solutions: soluble
  solubility in non-polar solvents: soluble

## CCCCCCCCC(OC(C)=O)C(CCCCCCCC(=O)O)OC(C)=O (stereo not shown) [lanthanum (III) tri 9,10-diacetoxy octadecanoate]
[1]
  solubility in fatty acid solutions: soluble
  solubility in non-polar solvents: soluble

## CC/C(=C(\c1ccccc1)c1ccc(OCCN(C)C)cc1)c1ccccc1 [Tamoxifen]
MCF7 breast cancer cells; MCF7, 24-hours, 50-nM Tamoxifen
  decrease in cell number: 54%
MCF7 breast cancer cells; MCF7, 72-hours, 50-nM Tamoxifen
  decrease in cell number: 80.3%

## CCN1CCN(Cc2ccc(Nc3ncc(F)c(-c4cc(F)c5nc(C)n(C(C)C)c5c4)n3)nc2)CC1 [Abemaciclib]
MCF7 breast cancer cells; MCF7, 24-hours, 10-nM Abemaciclib
  decrease in cell number: 10.2%
MCF7 breast cancer cells; MCF7, 72-hours, 10-nM Abemaciclib
  decrease in cell number: 26.4%

## Nc1ncnc2c1ncn2[C@@H]1O[C@H](COP(=O)(O)OP(=O)([O-])OP(=O)([O-])O)[C@@H](O)[C@H]1O.[Mg+2] [Mg-ATP]
Phosphoglycerate kinase
  K-value: 0.073 mM

## [La] [lanthanum]
TRPA1 channels
  IC50: 54 µM
